14 compounds from PubChem BioAssay (NCI) can be followed below.

Common to all, as to assay: DTP human tumour cell line panel, 48 h
Test [1] has as its system SN12C renal.
For test [2], the system named is UACC-257 melanoma.
In test [3] the test system is SNB-19 CNS.
For test [4], the system named is ACHN renal.
Test [5] deals with COLO 205 colon.
Test [6] concerns SK-OV-3 ovarian.
The test system of test [7] is RPMI-8226 leukemia.
Test [8] concerns OVCAR-8 ovarian.
Test [9] deals with SNB-75 CNS.

SMILES strings stand for the structures. Where “and” joins values, the source holds several entries; their conditions need not be identical. Equal values may be shown once.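 Each compound was tested at five concentrations against cells in 96-well plates for 48 hours. Abbreviation: GI50, concentration required for 50% inhibition of growth. TGI is the concentration that stops growth completely.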

What is called TGI is the concentration giving total growth inhibition. Read a high TGI as lower sensitivity of the cells. For `COC(CNC(=O)CNC(=O)c1ccc(C(F)(F)F)cc1)OC`, the TGI in test [1], in test [2], in test [3], in test [4], in [5] and in test [6] was over 100 µM throughout. The TGI in test [7], in test [8] and in test [9] was over 100 µM throughout.

As for `c1ccc(CN2CCC(=NN3CCCCC3)CC2)cc1`, the TGI is over 100 µM in [1]; over 100 µM in test [2]; over 100 µM in [3]; over 100 µM in [4]; 99.5 µM in [5]; over 100 µM in test [6]. Moreover, the TGI in test [7] is 66.3 µM; in [8], over 100 µM; in test [9], over 100 µM.

Turning to `CCOC(=O)c1c(N2CCCC2)[nH]c(=O)c(C(c2c(O)c(C(=O)OCC)c(N3CCCC3)[nH]c2=O)C(C)C)c1O`, the total growth inhibition concentration (TGI) in [1], in [2], in test [3], in test [4], in test [5] and in test [6] was over 100 µM each time. The TGI is over 100 µM in test [7], over 100 µM in test [8] and 96.5 µM in test [9].

`CC(C)C[S+]1C2=C([O-])CC(C)(C)CC2=Nc2ccccc21` (configuration not stated): the TGI in [1], in [2], in [3], in test [4], in test [5] and in test [6] was over 100 µM in each case. Further, the total growth inhibition concentration (TGI) in test [7], in [8] and in test [9] was over 100 µM throughout.

For the compound `COC(=O)C1OC(O[C@H]2CC[C@]3(C)[C@H]4CC=C5[C@@H]6CC(C)(C)CC[C@]6(C(=O)OC)CC[C@@]5(C)[C@]4(C)CC[C@H]3C2(C)C)C(O)C(O)C1O` (some centres not stated), the concentration for total growth inhibition (TGI) in test [1] came out at 26.8 µM; in test [2], 35.4 µM; in test [3], 31.1 µM; in test [4], 24.2 µM; in [5] it was 29.9 µM; in [6] it was 34.8 µM. Besides, the TGI in test [7] worked out at 51.7 µM; in test [8], 31.2 µM; in [9], 31.1 µM.

As to `O=C1c2ccccc2N=C(c2cc3c(cc2Cl)Sc2nccn2S3(=O)=O)OS(=O)(=O)N1c1ccccc1`, the TGI in test [1] is over 100 µM; in test [2], over 100 µM; in [3], over 100 µM; in [4] it was over 100 µM; in test [5], 42.6 µM; in test [6], over 100 µM. Moreover, the results for the concentration for total growth inhibition (TGI) in test [7], in [8] and in test [9] were 46.4 µM, 44.5 µM and 46.1 µM, respectively.

`COC(=O)[C@H](CNC(=O)/C=C/c1ccc(OC(C)=O)c(OC(C)=O)c1)NC(=O)/C=C/c1ccc(OC(C)=O)c(OC(C)=O)c1`: the concentration for total growth inhibition (TGI) in [1], in test [2], in test [3], in [4], in test [5] and in test [6] was over 100 µM throughout. Moreover, the TGI in test [7], in test [8] and in test [9] was over 100 µM each time.

Broadly, the GI50 is the concentration at which growth is held to half of that of the control. As to `COc1ccc(/C=C2/N=C(N/N=C\C(O)C(O)C(O)CO)NC2=O)cc1` (configuration not stated), the TGI in test [1], in [2], in [3], in test [4], in test [5] and in test [6] was over 100 µM throughout. Further, the total growth inhibition concentration (TGI) in test [7], in test [8] and in test [9] was over 100 µM each time. Also, the GI50 in [3] is > 100 µM and 48.4 µM; in test [9], > 100 µM and 41.4 µM.

Take `COc1ccc2[nH]c3cc4c(=O)c5cc(OC)ccc5[nH]c4cc3c(=O)c2c1`: the TGI in test [1], in test [2], in test [3], in [4], in test [5] and in test [6] was over 100 µM each time. Also, the TGI in [7] is over 100 µM; in test [8] it was over 100 µM; in [9], 67.5 µM.

Regarding `CN(C(=O)[C@H](NC(=O)OCc1ccccc1)c1ccccc1)C1CCCCC1N1CCCC1` (some centres not stated), the TGI is over 100 µM in [1]; 63.2 µM in test [2]; over 100 µM in test [3]; over 100 µM in test [4]; over 100 µM in test [5]; over 100 µM in test [6]. In addition, the TGI in test [7], in test [8] and in test [9] was over 100 µM each time.

As to `O=[N+]([O-])c1cc(Br)cc2cc(Cl)cnc12`, the TGI in test [1], in [2], in test [3], in test [4], in [5] and in test [6] was over 100 µM throughout. The total growth inhibition concentration (TGI) in test [7] was over 100 µM; in [8] it was over 100 µM; in [9] it was 92 µM.

With `Cc1cc(C)cc(Nc2nnc3n2S(=O)(=O)c2cc(C)c(Cl)cc2S3)c1`, the TGI is 48.5 µM in test [1]; 30.5 µM in test [2]; 49.3 µM in test [3]; 47.8 µM in test [4]; over 100 µM in [5]; over 100 µM in [6]. The values for the TGI in [7], in [8] and in test [9] were 42 µM, over 100 µM and over 100 µM, respectively.

In the case of `Cc1cccc2c(N)c3cccc(C(=O)NCC[N+](C)(C)Cc4ccc([N+](=O)[O-])n4C)c3nc12`, the TGI was over 57.3 µM in [1]; over 80.9 µM in test [2]; over 100 µM in test [3]; 56.1 µM in test [4]; 66.7 µM in test [5]; over 78 µM in test [6]. Also, the total growth inhibition concentration (TGI) in test [7] is 52.5 µM; in test [8] it was 64.1 µM; in [9], 43.2 µM.

Consider `Cc1ccc(S(=O)(=O)N(CC(O)COc2ccccc2)c2c(F)c(F)cc(F)c2F)cc1` (configuration not stated), for which the TGI in test [1] came to 49.9 µM; in [3] it was 82.1 µM; in test [4] it was 54.1 µM; in [5], 29.1 µM; in [6] it was 47.2 µM; in test [7], 41.4 µM. The TGI is 49.7 µM in [8] and 42.6 µM in test [9].
